Source: patent US20250122207A1, “AP2 ASSOCIATED KINASE 1 INHIBITORS AND USES THEREOF” (Satellos Bioscience Inc., priority 2023, published 2025)
Like-named read-outs stand apart in the source and are kept apart here.

Experiments:
[1] = target: AAK1 (Homo sapiens, UniProt Q2M2I8); experiment: pAP2M1 cell-based assay (in-cell Western)
From the text: pAP2M1 Cell-Based Assay (in-Cell Western):
The plate was read on Licor Odyssey CLx imaging system (LICOR) to acquire fluorescence intensity at 700 channel and 800 channel.
Data analysis: Fluorescence intensity at 700 channel served as internal standard and 800 channel were normalized with 700 channel.

[2] = target: T1, AAK1 (amino acids T27-A365) (Homo sapiens, UniProt Q2M2I8); experiment: AAK1 pSENs assay; format: biochemical
T1 construct: against AAK1 (amino acids T27-A365); 6His (N, cleaved yes)
T1 sequence (Q2M2I8 27-365): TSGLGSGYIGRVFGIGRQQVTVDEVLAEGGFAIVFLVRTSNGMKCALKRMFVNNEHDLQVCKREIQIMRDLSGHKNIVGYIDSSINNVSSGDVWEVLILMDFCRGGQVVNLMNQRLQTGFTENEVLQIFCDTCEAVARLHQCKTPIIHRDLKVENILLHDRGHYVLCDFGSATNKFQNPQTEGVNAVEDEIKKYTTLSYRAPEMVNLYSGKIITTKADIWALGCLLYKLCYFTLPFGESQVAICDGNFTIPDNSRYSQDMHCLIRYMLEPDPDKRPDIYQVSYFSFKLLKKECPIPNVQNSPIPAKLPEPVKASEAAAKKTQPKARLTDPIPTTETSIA
Protocol: (§1) The recombinant proteins were independently expressed in Escherichia coli BL21(DE3) cells cultured in Luria-Bertani (LB) medium until OD600 reached 0.6-0.8, then cooled to 15° C. and supplemented with 0.5 mM isopropyl 1-thio-D-galactopyranoside (IPTG) induce protein expression 16 h. Cells were harvested and resuspended in lysis buffer (50 mM HEPES pH 7.5, 500 mM NaCl, 5 mM imidazole, 5% glycerol, 0.5 mM Tris (2-carboxyethyl) phosphine (TCEP), cOmplete Protease Inhibitor Tablet (Roche)) and lysed by microfludics high pressure homogenizer (UH-06, Union-Biotech). Proteins were purified using […] chromatography (His FF column, Bestchrom) and eluted stepwise in binding buffer with 20-300 mM imidazole. Removal of the hexahistidine tag was performed at 4° C. overnight using recombinant TEV protease and reacted with BirA to obtain the corresponding biotinylated-AAK1, BIKE or GAK proteins. Further separated in the reverse Strep column (Strep-Tactin® XT, IBA). The Biotin elution sample was collected containing untagged biotinylated protein was then purified by Ion-exchange chromatography (Mono Q 10/100 GL, Cytiva) and Size-exclusion chromatography (HiLoad 16/600 Superdex 200 pg, Cytiva). The pure protein was stored in a storage buffer 50 mM HEPES (pH 7.5), 300 mM NaCl, 5% glycerol at −80° C. Protein were characterized by SDS-PAGE, LC-MS and aSEC.
(§2) This example describes one illustrative method for determining the IC50 of the compounds of the present invention against AAK1 (amino acids T27-A365). AAK1 protein was dissolved at 20 nM in 1× enzyme solution (50 mM HEPES pH7.5, 10 mM MgCl2, 1 mM DTT, 1% glycerol, 0.5 mM EGTA, 0.01% Briji35, 0.02% BSA) and 12.5 ul was incubated with 250 nl DMSO or 250 nl compound in DMSO at 25° C. for 15 min. The reaction was started by addition of 12.5 ul of 30 uM AQT0759 (Assayquant, CSKS-AQT0759B) and 70 uM ATP which were diluted in 1× substrate dilution buffer (50 mM HEPES pH7.5, 10 mM MgCl2, 1 mM DTT, 1% glycerol, 0.5 mM EGTA, 0.01% Briji35).

[3] = target: T2, BIKE (amino acids S38-E345) (K320A, K321A) (Homo sapiens, UniProt Q9NSY1, K320A/K321A); experiment: BIKE pSENs assay; format: biochemical
T2 construct: against BIKE (amino acids S38-E345) (K320A, K321A); 6His (N, cleaved yes)
T2 sequence (Q9NSY1 38-345 K320A/K321A): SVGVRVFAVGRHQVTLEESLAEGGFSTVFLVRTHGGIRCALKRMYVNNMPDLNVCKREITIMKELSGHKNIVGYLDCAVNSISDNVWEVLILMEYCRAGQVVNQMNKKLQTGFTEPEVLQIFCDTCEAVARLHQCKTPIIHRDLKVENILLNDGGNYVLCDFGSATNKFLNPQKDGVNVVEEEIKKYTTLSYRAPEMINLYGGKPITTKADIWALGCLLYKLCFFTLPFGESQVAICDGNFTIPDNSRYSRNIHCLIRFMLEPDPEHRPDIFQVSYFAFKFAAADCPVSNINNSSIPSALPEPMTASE
Protocol: as §1
as §2, with “BIKE” for “This example describes one illustrative method for determining the IC50 of the compounds of the present invention against AAK1 (amino acids T27-A365). AAK1”, “40” for “70”

[4] = Hela cells co-transfected with AP2M1 and AAK1, 3 hr treatment, class symbols, read-out: AAK1 In-cell Western: IC50
[5] = class symbols, read-out: AAK1 pSENs: EIC50
[6] = class symbols, read-out: BIKE pSENs: IC50

Sequence of AAK1 (Q2M2I8 whole entry): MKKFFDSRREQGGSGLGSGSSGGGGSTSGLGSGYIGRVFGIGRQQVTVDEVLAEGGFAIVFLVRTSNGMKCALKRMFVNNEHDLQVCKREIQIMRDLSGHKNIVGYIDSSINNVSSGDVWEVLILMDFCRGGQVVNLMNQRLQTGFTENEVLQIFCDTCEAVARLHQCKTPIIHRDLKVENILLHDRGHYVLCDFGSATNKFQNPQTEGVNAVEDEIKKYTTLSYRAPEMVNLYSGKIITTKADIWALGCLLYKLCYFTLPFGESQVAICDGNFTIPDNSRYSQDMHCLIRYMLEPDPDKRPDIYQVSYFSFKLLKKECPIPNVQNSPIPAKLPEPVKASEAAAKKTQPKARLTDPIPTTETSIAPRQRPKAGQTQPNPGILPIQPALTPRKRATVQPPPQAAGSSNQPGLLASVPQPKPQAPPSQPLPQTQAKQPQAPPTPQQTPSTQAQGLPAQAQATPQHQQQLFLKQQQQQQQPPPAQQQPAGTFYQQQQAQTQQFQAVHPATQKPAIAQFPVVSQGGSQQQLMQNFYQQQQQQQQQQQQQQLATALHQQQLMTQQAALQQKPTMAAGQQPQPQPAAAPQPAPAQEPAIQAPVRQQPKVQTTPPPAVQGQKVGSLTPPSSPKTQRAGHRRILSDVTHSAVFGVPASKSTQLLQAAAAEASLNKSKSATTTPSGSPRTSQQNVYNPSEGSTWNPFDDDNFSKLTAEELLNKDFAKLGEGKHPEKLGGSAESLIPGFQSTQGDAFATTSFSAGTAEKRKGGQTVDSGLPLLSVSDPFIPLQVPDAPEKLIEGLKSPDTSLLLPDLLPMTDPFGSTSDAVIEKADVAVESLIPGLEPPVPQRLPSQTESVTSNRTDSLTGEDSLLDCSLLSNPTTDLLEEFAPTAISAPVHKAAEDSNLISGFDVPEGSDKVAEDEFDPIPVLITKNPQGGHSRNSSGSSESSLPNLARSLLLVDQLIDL

Compound	IC50 [1, 4] [nM]	IC50 [2, 5] [nM]	IC50 [3, 6] [nM]	IC50 [1] [nM]	IC50 [2] [nM]	IC50 [3] [nM]	AAK1:GAK pSENs Selectivity ([2]; ratio of AAK1 pSENs activity to GAK pSENs activity, class symbols)
CC(C)(C)OC(=O)N1CCC(N2C[C@@H](OC(=O)N3CCN(c4ccn5ncc(-c6cccnc6OC6CC6)c5n4)CC3)CC2=O)CC1 [Compound I-30, [(3S)-1-(1-tert-Butoxycarbonyl-4-piperidyl)-5-oxo-pyrrolidin-3-yl]4-[3-[2-(cyclopropoxy)-3-pyridyl]pyrazolo[1,5-a]pyrimidin-5-yl]piperazine-1-carboxylate]	> 1500	51 to 150	501 to 1500				
[2H]C1([2H])N(C(=O)O[C@@H]2CNC(=O)C2)C([2H])([2H])C([2H])([2H])N(c2ccn3ncc(-c4cccnc4OC4CC4)c3n2)C1([2H])[2H] [Compound I-72, [(3S)-5-oxopyrrolidin-3-yl]4-[3-[2-(cyclopropoxy)-3-pyridyl]pyrazolo[1,5-a]pyrimidin-5-yl]-2,2,3,3,5,5,6,6-octadeuterio-piperazine-1-carboxylate]				501 to 1500	1 to 50	151 to 500	
COC(=O)N1CC(Oc2ncccc2-c2cnn3ccc(NCCN(C)C(=O)OC(C)(C)C)nc23)C1 [Compound I-64, Methyl3-[[3-[5-[2-[tert-butoxycarbonyl(methyl)amino]ethylamino]pyrazolo[1,5-a]pyrimidin-3-yl]-2-pyridyl]oxy]azetidine-1-carboxylate]	51 to 150	1 to 50	51 to 150				
CC(C)Oc1ncccc1-c1cnn2ccc(N3CCN(C(=O)O[C@@H]4CNC(=O)C4)CC3)nc12 [Compound I-26, [(3S)-5-Oxopyrrolidin-3-yl]-4-[3-(2-isopropoxy-3-pyridyl)pyrazolo[1,5-a]pyrimidin-5-yl]piperazine-1-carboxylate]	501 to 1500	1 to 50	501 to 1500				
[2H]C1([2H])N(C(=O)O[C@H]2CC(=O)N(C)C2)C([2H])([2H])C([2H])([2H])N(c2ccn3ncc(-c4cccnc4OC4CC4)c3n2)C1([2H])[2H] [Compound I-73, [(3S)-1-methyl-5-oxo-pyrrolidin-3-yl]-4-[3-[2-(cyclopropoxy)-3-pyridyl]pyrazolo[1,5-a]pyrimidin-5-yl]-2,2,3,3,5,5,6,6-octadeuterio-piperazine-1-carboxylate]				501 to 1500	1 to 50	501 to 1500	A (A: ≤0.015)
CC(C)Oc1ncccc1-c1cnn2ccc(N3CCN(C(=O)OC4(C)COC4)CC3)nc12 [Compound I-1, (3-methyloxetan-3-yl)-4-[3-(2-isopropoxy-3-pyridyl)pyrazolo[1,5-a]pyrimidin-5-yl]piperazine-1-carboxylate]			501 to 1500	501 to 1500	51 to 150		
[2H]C([2H])([2H])N1C[C@@H](OC(=O)N2CCN(c3ccn4ncc(-c5cccnc5OC5CC5)c4n3)CC2)CC1=O [Compound I-113, [(3S)-5-oxo-1-(trideuteriomethyl)pyrrolidin-3-yl]4-[3-[2-(cyclopropoxy)-3-pyridyl]pyrazolo[1,5-a]pyrimidin-5-yl]piperazine-1-carboxylate]	151 to 500				1 to 50	501 to 1500	
CN1C[C@@H](OC(=O)N2CCN(c3ccn4ncc(-c5cccnc5OC5CCOC5)c4n3)CC2)CC1=O (stereo partly drawn) [Compound I-119, [(3S)-1-methyl-5-oxo-pyrrolidin-3-yl]4-[3-(2-tetrahydrofuran-3-yloxy-3-pyridyl)pyrazolo[1,5-a]pyrimidin-5-yl]piperazine-1-carboxylate]	> 1500	51 to 150	501 to 1500				
CC1(OC(=O)N2CCN(c3ccn4ncc(-c5cccnc5OC5COC5)c4n3)CC2)COC1 [Compound I-18, (3-Methyloxetan-3-yl)-4-[3-[2-(oxetan-3-yloxy)-3-pyridyl]pyrazolo[1,5-a]pyrimidin-5-yl]piperazine-1-carboxylate]	151 to 500	1 to 50	501 to 1500				

Now from value to compound, other results behind:

IC50 [1, 4] [nM]	IC50 [2, 5] [nM]	IC50 [3, 6] [nM]	Compound	IC50 [1] [nM]	IC50 [2] [nM]	IC50 [3] [nM]	AAK1:GAK pSENs Selectivity ([2]; ratio of AAK1 pSENs activity to GAK pSENs activity, class symbols)
> 1500	1 to 50	501 to 1500	CC(=O)N1CC(Oc2ncccc2-c2cnn3ccc(N4CCN(C(=O)O[C@@H]5CNC(=O)C5)CC4)nc23)C1 [Compound I-59, (S)-5-oxopyrrolidin-3-yl 4-(3-(2-((1-acetylazetidin-3-yl)oxy)pyridin-3-yl)pyrazolo[1,5-a]pyrimidin-5-yl)piperazine-1-carboxylate]				
151 to 500	1 to 50	151 to 500	CN1C[C@@H](OC(=O)N2CCN(c3ccn4ncc(-c5cc(F)cnc5OC5CC5)c4n3)CC2)CC1=O [Compound I-86]				
> 1500	1 to 50	151 to 500	O=C1C[C@H](OC(=O)N2CCN(c3ccn4ncc(-c5cccnc5OC5CC5)c4n3)CC2)CN1CCO [Compound I-38, [(3S)-1-(2-Hydroxyethyl)-5-oxo-pyrrolidin-3-yl]-4-[3-[2-(cyclopropoxy)-3-pyridyl]pyrazolo[1,5-a]pyrimidin-5-yl]piperazine-1-carboxylate]				
> 1500	51 to 150	501 to 1500	CN(CCNc1ccn2ncc(-c3cccnc3OC3CC3)c2n1)C(=O)O[C@@H]1CNC(=O)C1 [Compound I-60, [(3S)-5-oxopyrrolidin-3-yl]N-[2-[[3-[2-(cyclopropoxy)-3-pyridyl]pyrazolo[1,5-a]pyrimidin-5-yl]amino]ethyl]-N-methyl-carbamate]				
501 to 1500	1 to 50	501 to 1500	COCCN1C[C@@H](OC(=O)N2CCN(c3ccn4ncc(-c5cccnc5OC5CC5)c4n3)CC2)CC1=O [Compound I-115, [(3S)-1-(2-methoxyethyl)-5-oxo-pyrrolidin-3-yl]-4-[3-[2-(cyclopropoxy)-3-pyridyl]pyrazolo[1,5-a]pyrimidin-5-yl]piperazine-1-carboxylate]				
151 to 500	1 to 50	151 to 500	O=C(O[C@H]1CO[C@H]2OCC[C@H]21)N1CCN(c2ccn3ncc(-c4cccnc4OC4CC4)c3n2)CC1 [Compound I-27, [(3aS,4R,6aR)-2,3,3a,4,5,6a-hexahydrofuro[2,3-b]furan-4-yl]-4-[3-[2-(cyclopropoxy)-3-pyridyl]pyrazolo[1,5-a]pyrimidin-5-yl]piperazine-1-carboxylate]				
151 to 500	1 to 50	51 to 150	CN1C[C@@H](OC(=O)N2CCN(c3nc4c(-c5cccnc5OC5CC5)cnn4cc3F)CC2)CC1=O [Compound I-109, [(3S)-1-methyl-5-oxo-pyrrolidin-3-yl]4-[3-[2-(cyclopropoxy)-3-pyridyl]-6-fluoro-pyrazolo[1,5-a]pyrimidin-5-yl]piperazine-1-carboxylate]				
501 to 1500	1 to 50	151 to 500	COc1ccccc1-c1cnn2ccc(N3CCN(C(=O)O[C@H]4CO[C@H]5OCC[C@H]54)CC3)nc12 [Compound I-69, (3R,3aS,6aR)-hexahydrofuro[2,3-b]furan-3-yl 4-(3-(2-methoxyphenyl)pyrazolo[1,5-a]pyrimidin-5-yl)piperazine-1-carboxylate]				
151 to 500	1 to 50	151 to 500	COc1ncccc1-c1cnn2ccc(N3CCN(C(=O)O[C@H]4CO[C@H]5OCC[C@H]54)CC3)nc12 [Compound I-65, (3R,3aS,6aR)-hexahydrofuro[2,3-b]furan-3-yl 4-(3-(2-methoxypyridin-3-yl)pyrazolo[1,5-a]pyrimidin-5-yl)piperazine-1-carboxylate]				
